The results in this text go back to patent US10344330B2, “Glatiramer acetate response biomarker mRNA potency assay” (Mylan Inc., priority 2013, dated 2019).

For assay [1], the system named is mouse IL-13 mRNA in primary LN cells. The assay is described as follows: Mouse IL-13 mRNA in LN cells of immunized SJL/J mice stimulated with Copaxone and GMA lots, normalized to Actβ or GAPDH (Example V). It counts as cell-based. The following applies: for 1L-13 mRNA Fold Change: normalized to Actβ; for IL-13 mRNA Fold Change: normalized to GAPDH. On the procedure: A real-time polymerase chain reaction method was used to measure the expression of cytokine mRNA in GA-stimulated LN cells from GA-immunized SJL/J mice. Normalization of expression with two different housekeeping genes, GAPDH and β-actin, was tested.
Each group consisted of six female SJL/J mice immunized by injection in all four footpads with a total dose of 250 μg of one lot of GA, or mannitol and no GA. Three Copaxone batches and three GMA batches were used to immunize the mice. CFA was included in both GA and mannitol immunizations. Ten days following immunization, LN cell samples isolated from the immunized mice were each stimulated with a concentration of a Copaxone lot and a GMA lot. A positive control of 2.5 μg/mL ConA treated LN cells and a negative control of 10 μg/mL MBP treated cells were included in each group.
Therefore, the Q-PCR analysis was repeated on the samples, measuring levels of IL-2, IL-4, IL-5, and IL-13, using both GAPDH and β-actin as reference gene.

The subject of assay [2] is mIL-4 mRNA in primary LN cells. The assay is described as follows: mIL-4 mRNA by real-time PCR in stimulated LN cells of immunized (SJL/J×BALB/C)F1 mice (Example I). The format is cell-based, mouse. The following applies: for mIL-4 mRNA Level: Experiment 1, GA-immunized (SJL/J×BALB/C)F1; for mIL-4 mRNA: reference 18S rRNA. On the procedure:
For each of the three experiments summarized in Table 1, female (SJL/J×BALB/C) F1 hybrid (Jackson Laboratory) mice were immunized by footpad injection with either 250 μg GMA (Mylan Pharmaceuticals, Inc.) and CFA (Sigma Aldrich), or Mannitol and CFA (as a negative control). The GA solution was diluted to 5 mg/mL with Dulbecco's Phosphate-buffered saline. A dose solution was then prepared by mixing the diluted GA solution (5 mg/mL) and CFA (1:1) until well-emulsified. Each mouse received a total injection volume of 0.1 mL (250 μg GA). Animals were immunized on Day 0. Immunized animals were sacrificed via cervical dislocation on Day 10 following immunization. […] The LN were washed 3 times with −5 mL of RPMI medium, and the LN cells isolated by pressing the LN with a syringe plunger. […] The cell suspension was centrifuged at about 200×g for 10 minutes at about 4° C. and re-suspended in ice cold enriched DCCM-1 medium. The LN cells (2.5×10^6 cells/cm^2) were plated in the wells of a 48-well tissue culture plate and stimulated with GA or controls.
Expression of cytokine mRNA was quantitatively analyzed using a Real-Time PCR system (7500, Applied Biosystems).
(DCCM1 from Beit Haemek Ltd.; Cat. No. 05 010 1A). There was no MBP treatment for the 2-hour groups.
Group 1B animals were female (SJL/J×BALB/C) F1 hybrid (Jackson Laboratory) mice immunized by footpad injection with either 250 μg GA and CFA, or Mannitol and CFA (as a negative control). A dose solution was prepared by mixing a diluted GA solution (5 mg/mL) and CFA (1:1). Each mouse received a total injection volume of […] (250 μg GA). Animals were immunized on Day 0. Immunized animals were sacrificed via cervical dislocation on Day 10 following immunization. Lymph nodes from immunized mice were removed and isolated. LN cells (2.5×10^6 cells/cm^2) were plated in the wells of a 48-well tissue culture plate for stimulation with GA.
Expression of cytokine mRNA was quantitatively analyzed 4 and 6 hours after using a Real-Time PCR system (7500, Applied Biosystems).

The mark [3] stands for this setting: 2 hour post stimulation, GA 10, ConA 2.5 μg/mL.
The mark [4] stands for this setting: 4 hour post stimulation, GA 10, MBP 10, ConA 2.5 μg/mL.
Where [5] appears, read: 6 hour post stimulation, GA 10, MBP 10, ConA 2.5 μg/mL.
The mark [6] stands for this setting: 24 hour post stimulation, GA 10, MBP 10, ConA 2.5 μg/mL.
Setting [7] is: Group 1B (GA + CFA), 4 hours post-stimulation, GA 10, MBP 10, ConA 2.5 μg/mL.
Setting [8] is: Group 1B (GA + CFA), 6 hours post-stimulation, GA 10, MBP 10, ConA 2.5 μg/mL.
Where [9] appears, read: Group 2B (Mannitol + CFA), 4 hours post-stimulation, GA 10, MBP 10, ConA 2.5 μg/mL.
[10] abbreviates: Group 2B (Mannitol + CFA), 6 hours post-stimulation, GA 10, MBP 10, ConA 2.5 μg/mL.

With “Concanavalin A [ConA, reference compound]”, the “1L-13 mRNA Fold Change” value in assay [1] (Group ID 3, 2.5 μg/mL) came out at 15.6 fold; in assay [1] (Group ID 4, 2.5 μg/mL), 20.4 fold. For the same molecule, the “IL-13 mRNA Fold Change” value in assay [1] (Group ID 3, 2.5 μg/mL) came out at 27.4 fold; in assay [1] (Group ID 4, 2.5 μg/mL), 34.8 fold. For the same molecule, the “mIL-4 mRNA Level” value in assay [2] (setting [3]) was found to be 35.7 fold change vs control; in assay [2] (setting [4]) it was 47.6 fold change vs control; in assay [2] (setting [5]), 52.2 fold change vs control; in assay [2] (setting [6]), 6.1 fold change vs control. The “mIL-4 mRNA” value in assay [2] (setting [7]) is given as 27.1 fold change vs control; in assay [2] (setting [8]), 12.8 fold change vs control; in assay [2] (setting [9]), 37.3 fold change vs control; in assay [2] (setting [10]), 56.2 fold change vs control.
Molecule “L-glutamic acid polymer with L-alanine, L-lysine and L-tyrosine, acetate (salt) [GA]” gave an IL-13 cross-potency in assay [1] (Copaxone: C/A, GMA: B/D, 5 μg/mL) of 74.8%. The “mIL-4 mRNA Level” value is given as 10.0 fold change vs control in assay [2] (setting [3]), 10.0 fold change vs control in assay [2] (setting [4]), 16.5 fold change vs control in assay [2] (setting [5]) and 14.1 fold change vs control in assay [2] (setting [6]). Besides, the “mIL-4 mRNA” value was found to be 8.2 fold change vs control in assay [2] (setting [7]), 9.2 fold change vs control in assay [2] (setting [8]), 2.2 fold change vs control in assay [2] (setting [9]) and 1.1 fold change vs control in assay [2] (setting [10]). In addition, the “mIL-4 mRNA level increase vs DCCM-1-stimulated control” value in assay [2] (Group 1B, 4 and 6 hours (summary of Table 9)) is given as “at least 8 fold”.

B1: MBP: myelin basic protein, a negative control (protein, UniProt P02686 1-304, looked up)
Myelin basic protein: MGNHAGKRELNAEKASTNSETNRGESEKKRNLGELSRTTSEDNEVFGEADANQNNGTSSQDTAVTDSKRTADPKNAWQDAHPADPGSRPHLIRLFSRDAPGREDNTFKDRPSESDELQTIQEDSAATSESLDVMASQKRPSQRHGSKYLATASTMDHARHGFLPRHRDTGILDSIGRFFGGDRGAPKRGSGKDSHHPARTAHYGSLPQKSHGRTQDENPVVHFFKNIVTPRTPPPSQGKGRGLSLSRFSWGAEGQRPGFGYGGRASDYKSAHKGFKGVDAQGTLSKIFKLGGRDSRSGSPMARR
In the case of B1, the “1L-13 mRNA Fold Change” value in assay [1] (Group ID 3, 10 μg/mL) came to 0.7 fold; in assay [1] (Group ID 4, 10 μg/mL), 1.0 fold. For the same molecule, the “IL-13 mRNA Fold Change” value in assay [1] (Group ID 3, 10 μg/mL) is recorded as 0.5 fold; in assay [1] (Group ID 4, 10 μg/mL), 1.2 fold. The “mIL-4 mRNA Level” value in assay [2] (setting [4]) amounted to 0.8 fold change vs control; in assay [2] (setting [5]), 0.6 fold change vs control; in assay [2] (setting [6]), 1.1 fold change vs control. Also, the “mIL-4 mRNA” value was found to be 0.5 fold change vs control in assay [2] (setting [7]), 0.3 fold change vs control in assay [2] (setting [8]), 1.4 fold change vs control in assay [2] (setting [9]) and 0.8 fold change vs control in assay [2] (setting [10]).
